Measured values from patent US8961930B2, “Isatin derivatives for use as in vivo imaging agents” (Imperial Innovations Limited, priority 2008, dated 2015).

Assays:
caspase 3 = molecular target: T1, caspase 3 (Homo sapiens, UniProt P42574); experiment: Fluorimetric in vitro caspase inhibition assay (7-AMC), caspase 3; format: biochemical; parameters: purchased Biomol International, UK; details: for EC50: recombinant human caspase 3, 10 μM Ac-DEVD-AMC; for increase in potency as compared to known benzyl derivative 15: caspase 3, versus compound 15
T1 sequence (P42574 29-175 limits assumed): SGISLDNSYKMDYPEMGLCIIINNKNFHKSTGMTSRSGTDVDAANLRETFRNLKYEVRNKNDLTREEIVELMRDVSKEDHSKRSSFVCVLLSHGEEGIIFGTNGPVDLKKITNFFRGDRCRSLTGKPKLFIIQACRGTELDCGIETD
T1 sequence (P42574 176-277 limits assumed): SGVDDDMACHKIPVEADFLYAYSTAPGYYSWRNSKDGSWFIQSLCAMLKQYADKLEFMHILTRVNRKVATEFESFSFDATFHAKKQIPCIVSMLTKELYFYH
Method: Recombinant human caspases-1, -3, -6, -7, and -8 and their peptide-specific substrates were purchased from Biomol International, UK Inhibition of the recombinant caspases by non-radioactive isatins was assessed using a fluorometric assay that measures the accumulation of a fluorogenic product, 7-amino-4-methylcoumarin (7-AMC). All assays were performed in 96-well plates at a volume of 200 μl per well. The assays were performed at 37° C. in an appropriate reaction buffer as described below for each caspase. For caspase 1, the buffer comprised of 0.1% CHAPS, 100 mM NaCl, 5 mM 2-mercaptoethanol, 100 mM HEPES (pH 7.4), 2 mM EDTA, 10% sucrose, and 10 μM of the peptide substrate Ac-YVAD-AMC. For caspase 3: 20 mM HEPES (pH 7.4), 10% sucrose, 100 mM NaCl, 0.1% CHAPS, 2 m, mM EDTA, and 10 μM Ac-DEVD-AMC. For caspase 6: 20 mM HEPES (pH 7.4), 10% sucrose, 100 mM NaCl, 0.1% CHAPS, 2 mM EDTA, and 10 μM Ac-VEID-AMC. For caspase 7: 20 mM HEPES (pH 7.4), 10% sucrose, 5 mM 2-mercaptoethanol, 100 mM NaCl, 0.1% CHAPS, 2 mM EDTA, 10 μM Ac-DEVD-AMC. For caspase 8: 20 mM HEPES (pH 7.4), 10% sucrose, 100 mM NaCl, 0.1% CHAPS, 2 mM EDTA, and 10 μM Ac-IETD-AMC. The Buffers contained non-radioactive isatins in DMSO at a final concentration of 500, 50, 5 μM; 500, 50, 5 nM; 500, 50, 5 pM; the final concentration of DMSO in all wells was 5% of the total volume. Recombinant caspases were used at 0.5 units per assay (˜500 pmol substrate converted per h). All reagents except the peptide substrate were pre-incubated for 10 min. The peptide substrate (final concentration 10 μM) was then added and the plate was incubated for a further 30 min; 30 min was selected after initial linearity study where reaction was assessed after 10, 30, 60 or 90 min. The 30 min time point was selected. Respective control wells contained all reaction components without enzyme. The amount of 7-AMC produced was measured on a fluorescence microplate reader (Victor2; Perkin-Elmer Life sciences) at excitation and emission wavelengths of 355 nm and 460 nm, respectively. The concentration of isatin that inhibits the caspase activity by 50% (EC50) was estimated by non-linear regression analysis using GraphPad Prism (Version 4.0 for Windows, GraphPad Software, San Diego Calif. USA). All the isatins were analyzed in duplicate; the assays were repeated once.
The data are the average for two runs, each of which was duplicated, at nine concentrations ranging from 5 pM to 500 μM; the drug concentration required to inhibit each enzyme by 50% (EC50) was obtained from nonlinear regression analysis of the inhibition profiles.

[1] = In vitro mouse liver S9 metabolism studies; format: in vitro ADME; details: 60 min incubation, 37° C., HPLC
Method: Liver S9 metabolism studies were performed as described in Aboagye et al^19. Mouse livers were rapidly excised and kept at 4° C. throughout the experiment. Tissues were weighed and homogenized in an equivalent volume of 50 mM Tris-150 mM KCl-HCl buffer (pH 7.4) using an Ultra-Thurrax homogenizer (IKA, Staufen, Germany). To obtain the S9 fraction, the homogenate was centrifuged (10,000×g) for 30 min to remove nuclei, mitochondria and cell debris. Protein concentration of the S9 fraction was determined by a commercial BCA protein assay kit (Perbio Science, Cheshire, UK). S9 fractions were stored at −80° C. for up to 6 weeks. […]
Immediately prior to extraction the samples were thawed and placed on ice. For extraction, ice cold acetonitrile (1.5 mL) was added to plasma (0.2 mL); S9 incubation samples (3 mL) containing acetonitrile were also analysed. […] The samples (1 mL) were then analyzed by radio-HPLC on an Agilent 1100 series HPLC system (Agilent Technologies, Stockport, UK) equipped with a γ-RAM Model 3 gamma-detector and the Laura software (IN/US Systems inc., Florida, USA).
The stationary phase comprised of a Waters μBondapak C18 reverse-phase column (300×7.8 mm). For analysis of [^125I]14, plasma and liver samples were processed as above and analyzed by using a mobile phase comprising of water (0.1% TFA)/propan-1-ol (0.1% TFA) (35:65) running in isocratic mode at a flowrate of 2 mL/min. […]

| EC50 (caspase 3) | SMILES | other results |
| --- | --- | --- |
| 17 nM | O=C1C(=O)N(Cc2ccc(F)cc2)c2ccc(S(=O)(=O)N3CCC[C@H]3COc3cccc(F)c3)cc21 [Compound 1, (S)-1-(4-Fluorobenzyl)-5-(2-(3-fluorophenoxymethyl)-pyrrolidine-1-sulfonyl)isatin] | increase of affinity for caspase 3 as compared with compound 14 (caspase 3; versus known compound 14): two- to three-fold |
| 12.4 nM | O=C1C(=O)N(Cc2ccc(F)cc2)c2ccc(S(=O)(=O)N3CCC[C@H]3COc3ccc(F)cc3F)cc21 [Compound 2, (S)-1-(4-Fluorobenzyl)-5-(2-(2,4-difluorophenoxymethyl)-pyrrolidine-1-sulfonyl)isatin] | – |
| 10.7 nM | O=C1C(=O)N(Cc2ccc(F)cc2)c2ccc(S(=O)(=O)N3CCC[C@H]3COC3CCOCC3)cc21 [Compound 4, (S)-1-(4-Fluorobenzyl)-5-(2-(tetrahydro-2H-pyran-4-yloxymethyl)-pyrrolidine-1-sulfonyl)isatin] | increase in potency as compared to known benzyl derivative 15 (caspase 3): five-fold |
| 5.5 nM | O=C1C(=O)N(Cc2ccc(F)cc2)c2ccc(S(=O)(=O)N3CCC[C@H]3COc3ccncn3)cc21 [Compound 5, (S)-1-(4-Fluorobenzyl)-5-(2-(pyrimidin-4-yloxymethyl)-pyrrolidine-1-sulfonyl)isatin] | – |
| 0.5 nM | O=C1C(=O)N(Cc2cn(CCF)nn2)c2ccc(S(=O)(=O)N3CCC[C@H]3COc3ccc(F)cc3F)cc21 [Compound 11, (S)-1-((1-(2-Fluoroethyl)-1H-[1,2,3]-triazol-4-yl)methyl)-5-(2(2,4-difluorophenoxymethyl)-pyrrolidine-1-sulfonyl)isatin] | – |
| 41.8 nM | O=C1C(=O)N(Cc2ccccc2)c2ccc(S(=O)(=O)N3CCC[C@H]3COc3ccccc3)cc21 [Compound 13, (S)-1-benzyl-5-(2-phenoxymethyl-pyrrolidine-1-sulfonyl)isatin, reference compound] | – |
| – | O=C1C(=O)N(Cc2ccc(I)cc2)c2ccc(S(=O)(=O)N3CCC[C@H]3COc3ccccc3)cc21 [Compound 14, (S)-1-(4-iodobenzyl)-5-(2-phenoxymethyl-pyrrolidine-1-sulfonyl)isatin, reference compound] | degradation in mouse liver S9 fraction [1]: near complete degradation |
| 50.5 nM | O=C1C(=O)N(Cc2ccc(F)cc2)c2ccc(S(=O)(=O)N3CCC[C@H]3COc3ccccc3)cc21 [Compound 15, (S)-1-(4-fluorobenzyl)-5-(2-phenoxymethyl-pyrrolidine-1-sulfonyl)isatin, reference compound] | degradation in mouse liver S9 fraction [1]: near complete degradation |
| 200 nM | O=C1C(=O)N(Cc2ccc(F)cc2)c2ccc(S(=O)(=O)N3CCCC3)cc21 [Compound 16, 1-(4-Fluorobenzyl)-5-(pyrrolidine-1-sulfonyl)isatin, reference compound] | – |
| 26.1 nM | O=C1C(=O)N(Cc2ccc(F)cc2)c2ccc(S(=O)(=O)N3CCC[C@H]3COc3ccc(F)cc3)cc21 [Compound 22, (S)-1-(4-Fluorobenzyl)-5-(2-(4-fluorophenoxymethyl)-pyrrolidine-1-sulfonyl)isatin] | – |
| 50.1 nM | C#CCN1C(=O)C(=O)c2cc(S(=O)(=O)N3CCC[C@H]3COc3ccc(F)cc3F)ccc21 [Compound 25, (S)-1-(2-Propynyl)-5-(2-(2,4-difluorophenoxymethyl)-pyrrolidine-1-sulfonyl)isatin] | – |

| SMILES | EC50 (caspase 3) | other results |
| --- | --- | --- |
| O=C1C(=O)N(Cc2cn(CCF)nn2)c2ccc(S(=O)(=O)N3CCC[C@H]3COc3ccccc3)cc21 [Compound 10, (S)-1-((1-(2-Fluoroethyl)-1H-[1,2,3]-triazol-4-yl)methyl)-5-(2-phenoxymethyl-pyrrolidine-1-sulfonyl)isatin] | 16.7 nM | increase in potency as compared to known benzyl derivative 15 (caspase 3): 4 fold |
